Source: paper PMC3382171 (PLoS ONE, 2012)

What was measured:
Assay in all cases: biochemical
Parameters in all cases: University of Dundee kinase panel, percent inhibition of phosphorylation at 1 uM RAFi, ATP at Km
Settings in all cases: read-out: Dundee KSS %inh at 1 uM
[1] = biological target: AKT2 (Homo sapiens, UniProt P31751)
Description: (§1) The METi and RAFi were screened against kinase panels (SelectScreen, Invitrogen; University of Dundee, Division of Signal Transduction Therapy, UK; Upstate Biotechnology/Millipore, Billerica, MA). In these selectivity assays the concentration of ATP was set to the Km value of ATP for each kinase tested to allow for a relative potency comparison between the various kinases. The compounds were tested at 1 µM final concentration. […] Supplementary file pone.0039653.s002.pdf: Figure S2 Kinase Selectivity Screen of RAFi. (A) Kinase selectivity screen (KSS) performed at University of Dundee (Division of Signal Transduction Therapy). Values in % inhibition of phosphorylation given 1 µM of RAFi compared to control. (B) KSS performed at Invitrogen (Selectscreen Service) compared to control. Values in % inhibition of phosphorylation given 1 µM of RAFi. (C) Cell based dose response kinase inhibition of indicated kinases by RAFi. (PDF) Click here for additional data file.

[2] = biological target: T1, CaMK1a (Homo sapiens, UniProt Q14012)
T1 construct: gene CAMK1
Description: as §1

[3] = biological target: T2, ERK7 (Homo sapiens, UniProt Q8TD08)
T2 construct: gene MAPK15
Description: as §1

[4] = biological target: T3, IKKb (Homo sapiens, UniProt O14920)
T3 construct: gene IKBKB
T3 sequence (O14920 whole entry): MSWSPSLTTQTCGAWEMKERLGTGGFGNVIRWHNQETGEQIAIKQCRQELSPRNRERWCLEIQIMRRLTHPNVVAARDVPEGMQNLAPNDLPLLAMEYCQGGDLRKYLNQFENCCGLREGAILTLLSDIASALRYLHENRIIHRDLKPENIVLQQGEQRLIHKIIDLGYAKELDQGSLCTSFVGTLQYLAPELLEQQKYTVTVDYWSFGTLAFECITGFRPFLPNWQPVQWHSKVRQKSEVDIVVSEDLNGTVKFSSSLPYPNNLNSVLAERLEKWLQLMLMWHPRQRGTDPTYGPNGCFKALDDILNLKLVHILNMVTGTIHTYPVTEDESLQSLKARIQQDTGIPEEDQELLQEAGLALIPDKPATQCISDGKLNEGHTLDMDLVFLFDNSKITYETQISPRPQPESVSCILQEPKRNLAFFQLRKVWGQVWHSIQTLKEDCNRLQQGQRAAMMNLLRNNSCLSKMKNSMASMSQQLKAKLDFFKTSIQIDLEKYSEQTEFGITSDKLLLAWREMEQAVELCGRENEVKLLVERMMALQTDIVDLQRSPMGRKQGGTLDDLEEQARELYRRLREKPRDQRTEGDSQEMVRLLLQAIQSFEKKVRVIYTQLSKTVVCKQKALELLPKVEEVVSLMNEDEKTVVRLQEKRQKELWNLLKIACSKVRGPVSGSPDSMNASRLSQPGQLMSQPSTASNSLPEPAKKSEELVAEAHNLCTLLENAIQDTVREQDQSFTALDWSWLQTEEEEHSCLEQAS
Description: as §1

[5] = biological target: T4, JNK1a (Homo sapiens, UniProt P45983)
T4 construct: gene MAPK8; isoform alpha
T4 sequence (P45983 whole entry, canonical isoform): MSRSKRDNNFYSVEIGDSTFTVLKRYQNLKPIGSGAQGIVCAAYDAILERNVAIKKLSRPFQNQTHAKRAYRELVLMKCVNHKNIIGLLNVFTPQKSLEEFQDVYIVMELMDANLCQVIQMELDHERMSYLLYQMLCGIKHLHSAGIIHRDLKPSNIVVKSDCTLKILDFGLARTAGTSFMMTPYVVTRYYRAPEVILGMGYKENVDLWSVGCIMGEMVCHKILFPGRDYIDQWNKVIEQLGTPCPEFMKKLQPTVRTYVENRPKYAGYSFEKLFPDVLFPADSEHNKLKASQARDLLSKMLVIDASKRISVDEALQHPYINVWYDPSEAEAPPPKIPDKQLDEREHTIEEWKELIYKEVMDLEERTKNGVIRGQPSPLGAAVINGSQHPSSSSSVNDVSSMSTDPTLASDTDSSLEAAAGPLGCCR
Description: as §1

[6] = biological target: T5, JNK2 (Homo sapiens, UniProt P45984)
T5 construct: gene MAPK9
T5 sequence (P45984 whole entry): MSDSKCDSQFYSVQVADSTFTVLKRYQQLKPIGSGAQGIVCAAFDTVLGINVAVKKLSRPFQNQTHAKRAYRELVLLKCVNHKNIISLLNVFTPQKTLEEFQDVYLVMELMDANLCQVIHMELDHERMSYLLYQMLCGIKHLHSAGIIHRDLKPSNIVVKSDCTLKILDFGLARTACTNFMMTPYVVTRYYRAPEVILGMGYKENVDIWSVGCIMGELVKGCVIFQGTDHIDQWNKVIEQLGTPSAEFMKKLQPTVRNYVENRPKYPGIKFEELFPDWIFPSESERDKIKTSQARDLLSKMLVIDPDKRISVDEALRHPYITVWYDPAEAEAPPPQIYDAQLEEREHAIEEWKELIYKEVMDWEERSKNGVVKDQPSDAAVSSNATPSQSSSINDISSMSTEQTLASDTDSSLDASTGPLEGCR
Description: as §1

[7] = biological target: MARK3 (Homo sapiens, UniProt P27448)
Sequence of MARK3 (P27448 whole entry): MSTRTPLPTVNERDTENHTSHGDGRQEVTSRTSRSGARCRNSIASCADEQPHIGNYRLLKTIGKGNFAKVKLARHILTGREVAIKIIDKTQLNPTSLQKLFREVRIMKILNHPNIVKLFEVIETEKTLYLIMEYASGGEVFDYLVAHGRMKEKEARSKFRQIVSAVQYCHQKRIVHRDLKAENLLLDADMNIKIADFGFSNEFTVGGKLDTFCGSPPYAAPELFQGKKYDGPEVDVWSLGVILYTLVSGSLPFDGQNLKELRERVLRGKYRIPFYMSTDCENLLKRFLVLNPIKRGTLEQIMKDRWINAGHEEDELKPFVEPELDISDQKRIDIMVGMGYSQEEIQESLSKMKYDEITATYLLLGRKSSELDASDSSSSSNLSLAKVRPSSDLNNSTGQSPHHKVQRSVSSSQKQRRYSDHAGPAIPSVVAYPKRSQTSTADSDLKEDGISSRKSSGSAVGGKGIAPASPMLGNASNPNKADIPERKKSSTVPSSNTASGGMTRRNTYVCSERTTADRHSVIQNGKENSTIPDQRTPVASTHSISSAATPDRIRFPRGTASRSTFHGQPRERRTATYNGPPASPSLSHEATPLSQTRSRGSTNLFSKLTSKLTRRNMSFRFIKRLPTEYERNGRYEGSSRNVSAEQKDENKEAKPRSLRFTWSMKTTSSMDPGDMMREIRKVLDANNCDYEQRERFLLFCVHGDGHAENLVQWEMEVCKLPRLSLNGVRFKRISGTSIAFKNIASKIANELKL
Description: as §1

[8] = biological target: T6, MNK1 (Homo sapiens, UniProt Q9BUB5)
T6 construct: gene MKNK1
Description: as §1

[9] = biological target: T7, MSK1 (Homo sapiens, UniProt O75582)
T7 construct: gene RPS6KA5
T7 sequence (O75582 whole entry): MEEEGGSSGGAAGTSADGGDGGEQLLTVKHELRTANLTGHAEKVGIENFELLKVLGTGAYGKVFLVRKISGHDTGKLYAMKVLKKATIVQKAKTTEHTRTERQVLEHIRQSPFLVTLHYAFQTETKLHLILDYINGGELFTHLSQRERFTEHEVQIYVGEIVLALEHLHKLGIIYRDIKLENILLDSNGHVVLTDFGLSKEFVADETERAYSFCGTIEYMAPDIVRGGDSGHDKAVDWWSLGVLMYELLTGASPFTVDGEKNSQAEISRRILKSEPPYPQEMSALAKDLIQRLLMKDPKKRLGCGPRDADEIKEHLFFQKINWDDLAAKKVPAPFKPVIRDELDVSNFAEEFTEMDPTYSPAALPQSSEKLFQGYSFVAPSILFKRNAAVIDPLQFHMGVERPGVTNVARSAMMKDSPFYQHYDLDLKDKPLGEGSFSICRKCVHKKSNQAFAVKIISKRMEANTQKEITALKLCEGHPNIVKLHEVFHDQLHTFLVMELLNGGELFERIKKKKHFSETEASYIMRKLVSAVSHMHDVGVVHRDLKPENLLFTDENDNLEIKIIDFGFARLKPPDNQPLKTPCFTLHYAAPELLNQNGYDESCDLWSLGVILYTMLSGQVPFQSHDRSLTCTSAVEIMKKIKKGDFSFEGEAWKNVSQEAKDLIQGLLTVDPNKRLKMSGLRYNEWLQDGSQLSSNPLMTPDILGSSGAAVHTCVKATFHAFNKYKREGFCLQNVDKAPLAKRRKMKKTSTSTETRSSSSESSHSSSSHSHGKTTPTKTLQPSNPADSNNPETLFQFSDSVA
Description: as §1

[10] = biological target: T8, P70S6K (Homo sapiens, UniProt P23443)
T8 construct: gene RPS6KB1
T8 sequence (P23443 whole entry): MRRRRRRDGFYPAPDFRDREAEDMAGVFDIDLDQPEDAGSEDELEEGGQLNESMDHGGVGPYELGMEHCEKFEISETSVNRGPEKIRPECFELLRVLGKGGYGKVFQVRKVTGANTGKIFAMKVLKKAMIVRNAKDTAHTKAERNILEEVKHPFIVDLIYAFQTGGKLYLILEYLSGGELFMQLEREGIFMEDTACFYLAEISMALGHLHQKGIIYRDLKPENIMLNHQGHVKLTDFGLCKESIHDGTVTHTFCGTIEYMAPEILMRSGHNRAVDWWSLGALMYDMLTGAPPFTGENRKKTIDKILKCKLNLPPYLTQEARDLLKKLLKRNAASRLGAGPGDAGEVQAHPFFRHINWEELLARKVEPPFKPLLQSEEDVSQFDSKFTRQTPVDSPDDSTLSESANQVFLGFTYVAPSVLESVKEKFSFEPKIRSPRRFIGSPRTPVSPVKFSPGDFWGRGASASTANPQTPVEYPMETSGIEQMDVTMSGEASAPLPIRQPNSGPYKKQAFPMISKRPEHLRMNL
Description: as §1

[11] = biological target: T9, PDK1 (Homo sapiens, UniProt O15530)
T9 construct: gene PDPK1
Description: as §1

[12] = biological target: PIM3 (Homo sapiens, UniProt Q86V86)
Description: as §1

[13] = biological target: T10, PKD1 (Homo sapiens, UniProt Q15139)
T10 construct: gene PRKD1
T10 sequence (Q15139 whole entry): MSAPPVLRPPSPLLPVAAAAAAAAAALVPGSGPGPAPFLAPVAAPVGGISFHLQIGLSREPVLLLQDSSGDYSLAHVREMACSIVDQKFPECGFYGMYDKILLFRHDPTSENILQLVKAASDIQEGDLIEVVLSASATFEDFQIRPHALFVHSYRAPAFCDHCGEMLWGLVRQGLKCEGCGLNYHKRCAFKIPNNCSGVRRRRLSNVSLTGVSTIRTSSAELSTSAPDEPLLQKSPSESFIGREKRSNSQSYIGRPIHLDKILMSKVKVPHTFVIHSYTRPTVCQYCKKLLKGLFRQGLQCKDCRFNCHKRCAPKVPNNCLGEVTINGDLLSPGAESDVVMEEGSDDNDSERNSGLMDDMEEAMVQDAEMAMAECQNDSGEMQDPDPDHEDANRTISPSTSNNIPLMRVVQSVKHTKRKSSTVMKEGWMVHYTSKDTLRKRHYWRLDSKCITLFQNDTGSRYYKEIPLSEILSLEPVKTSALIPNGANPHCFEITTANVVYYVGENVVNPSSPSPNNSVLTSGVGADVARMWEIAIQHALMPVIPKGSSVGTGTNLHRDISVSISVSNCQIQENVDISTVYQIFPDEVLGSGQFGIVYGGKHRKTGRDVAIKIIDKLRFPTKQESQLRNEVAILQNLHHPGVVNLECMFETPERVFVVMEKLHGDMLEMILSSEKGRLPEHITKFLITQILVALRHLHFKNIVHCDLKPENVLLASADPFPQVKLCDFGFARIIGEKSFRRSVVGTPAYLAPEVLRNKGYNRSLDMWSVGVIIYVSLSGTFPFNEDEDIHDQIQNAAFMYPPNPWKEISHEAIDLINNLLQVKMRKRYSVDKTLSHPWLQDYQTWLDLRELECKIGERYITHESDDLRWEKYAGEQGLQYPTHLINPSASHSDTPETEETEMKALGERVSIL
Description: as §1

[14] = biological target: T11, RSK2 (Homo sapiens, UniProt P51812)
T11 construct: gene RPS6KA3
Description: as §1

[15] = biological target: SRPK1 (Homo sapiens, UniProt Q96SB4)
Description: as §1

[16] = biological target: T12, mouse ERK2 (Mus musculus, UniProt P63085)
T12 construct: gene Mapk1
Description: as §1

[17] = biological target: T13, p38 (Homo sapiens, UniProt Q16539)
T13 construct: gene MAPK14
Description: as §1

[18] = biological target: T14, p38g (Homo sapiens, UniProt P53778)
T14 construct: gene MAPK12
T14 sequence (P53778 whole entry): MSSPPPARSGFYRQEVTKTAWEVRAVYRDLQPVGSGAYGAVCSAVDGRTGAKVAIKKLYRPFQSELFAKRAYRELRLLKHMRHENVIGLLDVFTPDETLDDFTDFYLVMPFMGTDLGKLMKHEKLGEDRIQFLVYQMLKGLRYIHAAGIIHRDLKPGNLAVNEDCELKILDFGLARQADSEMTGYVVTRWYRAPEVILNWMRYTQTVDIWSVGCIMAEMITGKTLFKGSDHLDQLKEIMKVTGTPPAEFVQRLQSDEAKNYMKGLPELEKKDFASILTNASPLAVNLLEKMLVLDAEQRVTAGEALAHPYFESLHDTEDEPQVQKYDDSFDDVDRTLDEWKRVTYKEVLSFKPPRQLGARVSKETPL
Description: as §1

[19] = biological target: T15, rat MNB (Rattus norvegicus, UniProt Q63470)
T15 construct: gene Dyrk1a
Description: as §1

[20] = biological target: T16, rat RSK1 (Rattus norvegicus, UniProt Q63531)
T16 construct: gene Rps6ka1
Description: as §1

`N#CCCNc1nccc(-c2cn(CC(F)F)nc2-c2cnc3[nH]ccc3c2)n1` [RAFi, PF-04880594] was tested, and the inhibition at 1 µM [1] was 28%, the inhibition at 1 µM [2] was 18% and the inhibition at 1 µM [3] was 16%. It also gave an inhibition at 1 µM [4] of 4%, an inhibition at 1 µM [5] of 62% and an inhibition at 1 µM [6] of 95%. For the same compound, the inhibition at 1 µM [7] was 20%, the inhibition at 1 µM [8] was 7% and the inhibition at 1 µM [9] was 14%. For the same compound, the inhibition at 1 µM [10] was -5%, the inhibition at 1 µM [11] was 11% and the inhibition at 1 µM [12] was 3%. It also gave an inhibition at 1 µM [13] of 47%, an inhibition at 1 µM [14] of 30% and an inhibition at 1 µM [15] of 5%. For the same compound, the inhibition at 1 µM [16] was 48%, the inhibition at 1 µM [17] was 96% and the inhibition at 1 µM [18] was 4%. For the same compound, the inhibition at 1 µM [19] was 4% and the inhibition at 1 µM [20] was 29%.
